The values below come from ChEMBL document CHEMBL1136474, “4-(4-alkylpiperazin-1-yl)phenyl group: a novel class of basic side chains for selective estrogen receptor modulators” (2003).

One assay has as its system Rattus norvegicus. Briefly: Plasma cholesterol lowering effect was determined in Sprague-Dawley rats at a dose of 1 mg/kg/day for 4 days. Type of assay: functional.
The target of assay [1] is Estrogen receptor (Homo sapiens) (UniProt Q92731+P03372). As to the kind of experiment: Binding affinity towards estrogen receptor (ER) using [3H]17-beta-estradiol as radioligand in human breast cancer MCF-7 cells relative to compound 1. Type of assay: cell-based. To be noted: MCF7.
Assay [2] has as its target T1, Estrogen receptor (Rattus norvegicus) (UniProt P06211+Q62986). To be noted: Uterus.
Description: Uterotrophic effect as uterine weight gain in rats at 1 mg/kg/day oral dose for 4 days
Assay [3] has as its target T1, Estrogen receptor (Rattus norvegicus). Briefly: Uterotrophic effect as uterine weight gain in rats at 10 mg/kg/day oral dose for 4 days. Type of assay: functional, organism-based. The note with it: Uterus.

Turning to `Oc1ccc2c(c1)CCC21C=C(c2ccc(OCCN3CCCC3)cc2)c2cc(O)ccc21` (stereo unspecified), the Decrease with Rattus norvegicus was found to be 17%. In assay [1], this compound returned a relative binding affinity (RBA) of 118.
Take `Oc1ccc2c(c1)CCC21C=C(c2ccc(OCCN3CCCCC3)cc2)c2cc(O)ccc21` (stereo unspecified): the Decrease with Rattus norvegicus is listed as 44%.
`Oc1ccc2c(c1)CCC21C=C(c2ccc(N3CCCCC3)cc2)c2cc(O)ccc21` (stereo unspecified): the Decrease in the assay with Rattus norvegicus came to 51%. Further, the Uterotrophic effect in assay [2] came to 139. The Increase in assay [3] came out at 26.5%. In addition, the relative binding affinity (RBA) in assay [1] is 125.
For the compound `CN(C)CCOc1ccc(C2=CC3(CCc4cc(O)ccc43)c3ccc(O)cc32)cc1` (stereo unspecified), in the assay on Rattus norvegicus, the Decrease is on record as 6%. The relative binding affinity (RBA) in assay [1] was 85.
In the same order, the values of `CCN(CC)CCOc1ccc(C2=CC3(CCc4cc(O)ccc43)c3ccc(O)cc32)cc1` (stereo unspecified) are 18% and 153.
In the same order, the values of `Cc1cc(C2=CC3(CCc4cc(O)ccc43)c3ccc(O)cc32)cc(C)c1OCCN1CCCCC1` (stereo unspecified) are -9.1% and 22.
On to `Oc1ccc2c(c1)CCC21C=C(c2ccc(OCCN3CCCCC3)c(F)c2)c2cc(O)ccc21` (stereo unspecified), for which, in the assay with Rattus norvegicus, the Decrease is given as 16%. The relative binding affinity (RBA) in assay [1] was found to be 247.
For `CC(C)CN1CCN(c2ccc(C3=CC4(CCc5cc(O)ccc54)c4ccc(O)cc43)cc2)CC1` (stereo unspecified), the Decrease in the assay on Rattus norvegicus was determined as 87%. Also, the Uterotrophic effect in assay [2] was 185. In addition, in assay [1], the relative binding affinity (RBA) stood at 42.
On to `CC(C)N1CCN(c2ccc(C3=CC4(CCc5cc(O)ccc54)c4ccc(O)cc43)cc2)CC1` (stereo unspecified), for which the Decrease with Rattus norvegicus is given as 21%. Further, the relative binding affinity (RBA) in assay [1] was 103.
With `Oc1ccc2c(c1)CCC21C=C(c2cccc(OCCN3CCCCC3)c2)c2cc(O)ccc21` (stereo unspecified), the relative binding affinity (RBA) in assay [1] stood at 47.
Compound `CN1CCN(c2ccc(C3=CC4(CCc5cc(O)ccc54)c4ccc(O)cc43)cc2)CC1` (stereo unspecified) showed a relative binding affinity (RBA) in assay [1] of 207.
For the compound `Oc1ccc2c(c1)CCC21C=C(c2ccc(OCCCN3CCCCC3)cc2)c2cc(O)ccc21` (stereo unspecified), the Decrease in the assay with Rattus norvegicus amounted to 8.5%. In assay [1], this compound displayed a relative binding affinity (RBA) of 460.
On the same counts, the results for `Cc1cc(C2=CC3(CCc4cc(O)ccc43)c3ccc(O)cc32)ccc1OCCN1CCCCC1` (stereo unspecified) are 4.5% and 122.
In the same order, the values of `Oc1ccc2c(c1)CCC21C=C(c2ccc(CCCN3CCCCC3)cc2)c2cc(O)ccc21` (stereo unspecified) are 6% and 956.
Take `CCCN1CCN(c2ccc(C3=CC4(CCc5cc(O)ccc54)c4ccc(O)cc43)cc2)CC1` (stereo unspecified): the Decrease in the assay on Rattus norvegicus is 55%. In assay [2], the Uterotrophic effect was found to be 223. For the same compound, the relative binding affinity (RBA) in assay [1] came out at 186.
With `CCC1CCCN(c2ccc(C3=CC4(CCc5cc(O)ccc54)c4ccc(O)cc43)cc2)CC1` (stereo unspecified), the Decrease in the assay on Rattus norvegicus came to 32%. The compound further returned a Uterotrophic effect in assay [2] of 114. Besides, the relative binding affinity (RBA) in assay [1] was determined as 387.
`CCN1CCN(c2ccc(C3=CC4(CCc5cc(O)ccc54)c4ccc(O)cc43)cc2)CC1` (stereo unspecified): the Decrease in the assay with Rattus norvegicus was 52%. Also, the Uterotrophic effect in assay [2] is 208. The same compound registered a relative binding affinity (RBA) in assay [1] of 181.
`CC1CCN(CCOc2ccc(C3=CC4(CCc5cc(O)ccc54)c4ccc(O)cc43)cc2)CC1` (stereo unspecified): the Decrease in the assay with Rattus norvegicus was 18%. The relative binding affinity (RBA) in assay [1] was 428.
On the same counts, the results for `Cc1cc(OCCN2CCCCC2)ccc1C1=CC2(CCc3cc(O)ccc32)c2ccc(O)cc21` (stereo unspecified) are -12% and 70.
